In patent publication US11945783B1, “4-(4,5-bis(4-bromophenyl)-2-(4-methoxyphenyl)-1H-imidazol-1-yl)butanoic acid as an antimicrobial compound” (KING FAISAL UNIVERSITY, priority 2023, dated 2024):

What was measured:
Assay type in all cases: cell-based
[1] = system: Bacillus cereus; experiment: Agar plate disc-diffusion, antibacterial; settings: nutrient agar, 37° C., 48 hours
Description: (§1) The agar plate disc-diffusion method was applied. […] The discs were then placed onto the surface of agar plates (nutrient agar for bacteria and Sabouraud's dextrose agar for fungi) seeded with the test organism. Each plate contained 15 mL of the agar medium, previously seeded with 0.2 mL of the broth culture of each organism pregrown for 18 hours. The plates were incubated at 37° C. for 48 hours, and 72 hours for fungi. The inhibition zones was measured in mm. Discs impregnated with DMSO were used as a control, and its inhibition zone was subtracted from the tested compound actual inhibition zone.

[2] = system: Escherichia coli; experiment: Agar plate disc-diffusion, antibacterial; settings: nutrient agar, 37° C., 48 hours
Description: as §1

[3] = system: Pseudomonas aeruginosa; experiment: Agar plate disc-diffusion, antibacterial; settings: nutrient agar, 37° C., 48 hours
Description: as §1

[4] = system: Staphylococcus aureus; experiment: Agar plate disc-diffusion, antibacterial; settings: nutrient agar, 37° C., 48 hours
Description: as §1

[5] = system: Aspergillus flavus; experiment: Agar plate disc-diffusion, antifungal; settings: Sabouraud's dextrose agar, 72 hours
Description: as §1

[6] = system: Chrysosporium keratinophilum; experiment: Agar plate disc-diffusion, antifungal; settings: Sabouraud's dextrose agar, 72 hours
Description: as §1

[7] = A = concentration of comp. = 10,000 μL
[8] = B = concentration of comp. = 30,000 μL
[9] = C = concentration of comp. = 50,000 μL
[10] = A = concentration of comp. = 10,000 μg/mL

Row | Compound | inhibition zone [1, 7] [mm] | inhibition zone [1, 8] [mm] | inhibition zone [1, 9] [mm] | inhibition zone [2, 7] [mm] | inhibition zone [2, 8] [mm] | inhibition zone [2, 9] [mm] | inhibition zone [3, 10] [mm] | inhibition zone [3, 8] [mm] | inhibition zone [3, 9] [mm] | inhibition zone [4, 7] [mm] | inhibition zone [4, 8] [mm] | inhibition zone [4, 9] [mm] | inhibition zone [5, 7] [mm] | inhibition zone [5, 8] [mm] | inhibition zone [5, 9] [mm] | inhibition zone [6, 7] [mm] | inhibition zone [6, 8] [mm] | inhibition zone [6, 9] [mm]
1 | O=C(O)c1cn(C2CC2)c2cc(N3CCNCC3)c(F)cc2c1=O [Cip., ciprofloxacin] | 29 | 31 | 42 | 30 | 39 | 60 | 29 | 30 | 53 | 43 | 44 | 53 | 29 | 32 | 42 | 29 | 30 | 53
2 | COc1ccc(-c2nc(-c3ccc(Br)cc3)c(-c3ccc(Br)cc3)n2CCCC(=O)O)cc1 [V, 4-(4,5-bis(4-bromophenyl)-2-(4-methoxyphenyl)-1H-imidazol-1-yl)butanoic acid] | 28 | 30 | 41 | 26 | 35 | 47 | 21 | 24 | 35 | 18 | 20 | 30 | 19 | 21 | 32 | 26 | 28 | 50
